Results reported in paper PMC11190208, “Bacterial c-di-GMP triggers metamorphosis of mussel larvae through a STING receptor” (NPJ Biofilms and Microbiomes, 2024).

Biological target: T1, McSTING (Mytilus coruscus, UniProt A0A7U0FWW1)
T1 construct: gene STING-3; full-length 1-716aa, pColdIII vector, expressed in E. coli Rosetta
Assay: SPR (OpenSPR, McSTING immobilised on COOH chip)
Format: binding
Excerpt: SPR (OpenSPR, McSTING immobilised on COOH chip) on McSTING | concentration-dependent binding of the recombinant protein McSTING to synthetic c-di-GMP with a KD of […]

T1 sequence (A0A7U0FWW1 entry or part of it): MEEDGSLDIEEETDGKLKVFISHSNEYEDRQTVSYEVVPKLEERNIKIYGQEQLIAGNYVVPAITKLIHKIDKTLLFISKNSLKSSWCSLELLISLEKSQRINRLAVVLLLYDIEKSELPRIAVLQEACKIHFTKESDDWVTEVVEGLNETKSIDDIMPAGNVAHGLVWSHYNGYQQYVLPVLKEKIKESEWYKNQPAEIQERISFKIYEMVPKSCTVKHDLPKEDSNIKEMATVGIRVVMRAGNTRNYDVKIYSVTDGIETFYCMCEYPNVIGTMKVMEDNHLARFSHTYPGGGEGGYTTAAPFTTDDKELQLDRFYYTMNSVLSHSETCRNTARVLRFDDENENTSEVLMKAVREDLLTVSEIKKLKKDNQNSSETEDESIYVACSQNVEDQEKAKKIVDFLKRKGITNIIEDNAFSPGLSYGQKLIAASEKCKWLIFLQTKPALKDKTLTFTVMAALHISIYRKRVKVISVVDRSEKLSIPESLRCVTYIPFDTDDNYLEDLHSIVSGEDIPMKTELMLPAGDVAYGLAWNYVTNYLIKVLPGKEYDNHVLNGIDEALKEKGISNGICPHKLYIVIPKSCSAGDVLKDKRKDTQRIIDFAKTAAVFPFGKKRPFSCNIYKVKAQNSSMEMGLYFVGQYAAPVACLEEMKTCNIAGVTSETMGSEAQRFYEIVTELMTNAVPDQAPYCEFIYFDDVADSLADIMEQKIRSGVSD

Nc1nc2c(ncn2[C@@H]2O[C@@H]3CO[P@](=O)(O)O[C@H]4[C@@H](O)[C@H](n5cnc6c(=O)[nH]c(N)nc65)O[C@@H]4CO[P@](=O)(O)O[C@H]3[C@H]2O)c(=O)[nH]1 [c-di-GMP]
Kd: 42.7 µM
